Values joined by “and” are separate entries in the source; they are usually repeats but may differ in a detail not shown here. Equal entries are not always repeated. Where two headings read alike, the source gives them in different places.
Assays:
copper = assay: Study 301: plasma copper pharmacodynamics (dNCC, LBC, plasma total copper; daily mean AUEC); assay type: in vivo, human; conditions: for Mean Daily dNCC AUEC0-48w, Mean (SD): Full Analysis Set; for Mean Daily dNCC AUEC0-48w, Mean (SD) / Mean Daily dNCC AUEC0-48w, LSM (SE): multiple imputation
From the text: FIG. 1 provides a schematic view of the study design. […] This study is referred throughout as Study 301.
The primary endpoint integrated copper mobilization and sequestration (i.e., copper control) throughout the 48-week Primary Treatment Period by assessment of daily mean area under the effect-time curve (AUEC) of directly measured non-ceruloplasmin-bound copper (dNCC) concentration. […] Measurement of dNCC in plasma is highly sensitive and accurate, requiring no special formulas or assumptions. As proposed, dNCC AUEC0-48W is an indirect measure of copper mobilization and sequestration.
This assessment is also applicable to SoC treatments. In addition, plasma Cp, CpC, plasma total copper, and LBC were measured with AUEC calculated for plasma total copper and LBC.
Pharmacodynamics: Blood samples were collected to directly measure plasma total copper, PUF copper, dNCC, and LBC. Calculations may be performed for cNCC and cNCCconnected, the latter of which is non-ceruloplasmin-bound and non-molybdenum-albumin-bound copper.
The AUEC for dNCC concentration was calculated using the trapezoidal rule, and then divided by number of days to yield a mean daily AUEC plasma dNCC concentration from baseline to Week 48 (expressed as μmol/L and described as AUEC0-48W).
Tests were performed at a significance level of 0.05 (2-sided).

[1] = test system: patients with Wilson disease (WD)
From the text: The UWDRS Part II total score results for this pooled population are presented in Table 16 and FIG. 13 and the UWDRS Part III total score results are in Table 17 and FIG. 14. The UWDRS Part III Functional Subscale (comprised of the items arising from a chair, gait, handwriting and speech) results for this pooled population are presented in Table 18 and FIG. 15.

[2] = Study 301, Cohort 1, lower part of Table 5
[3] = Study 301, Cohort 2, lower part of Table 5
[4] = Study 301, Overall, lower part of Table 5

## Bis-choline tetrathiomolybdate [BC-TTM]
copper; Study 301, Adolescent
  AUEC(0-48 week) LBC, Mean: 1.5 mmol/L
  AUEC(0-48 week) LBC, Median: 1.2 mmol/L
  AUEC(0-48 week) PTC (plasma total copper), Mean: 7.5 mmol/L
  AUEC(0-48 week) PTC (plasma total copper), Median: 5.4 mmol/L
  AUEC(0-48 week) dNCC, Mean: 2.7 mmol/L
  AUEC(0-48 week) dNCC, Median: 2.3 mmol/L
copper; Study 301, Adult
  AUEC(0-48 week) LBC, Mean: 1.8 mmol/L
  AUEC(0-48 week) LBC, Median: 1.2 mmol/L
  AUEC(0-48 week) PTC (plasma total copper), Mean: 7.8 mmol/L
  AUEC(0-48 week) PTC (plasma total copper), Median: 7.3 mmol/L
  AUEC(0-48 week) dNCC, Mean: 3.2 mmol/L
  AUEC(0-48 week) dNCC, Median: 2.2 mmol/L
copper; Study 301, Cohort 1
  Mean Daily dNCC AUEC0-48w, LSM Diff (SE), BC-TTM vs SoC: 1.64 (0.254) μmol/L
copper; Study 301, Cohort 1 (prior SoC >28 days)
  Mean Daily dNCC AUEC0-48w, Mean (SD): 2.68 (2.118) μmol/L
copper; Study 301, Cohort 1, ANCOVA
  Mean Daily dNCC AUEC0-48w, LSM (SE): 2.50 (0.150) μmol/L
copper; [2]
  Mean Daily dNCC AUEC0-48w, Between Group LSM Diff (SE): 1.72 (0.277) μmol/L
  Mean Daily dNCC AUEC0-48w, Within Group LSM (SE): 2.59 (0.165) μmol/L
copper; Study 301, Cohort 2
  Mean Daily dNCC AUEC0-48w, LSM Diff (SE), BC-TTM vs SoC: 3.79 (0.584) μmol/L
copper; Study 301, Cohort 2 (treatment-naïve or SoC ≤28 days)
  Mean Daily dNCC AUEC0-48w, Mean (SD): 4.58 (2.526) μmol/L
copper; Study 301, Cohort 2, ANCOVA
  Mean Daily dNCC AUEC0-48w, LSM (SE): 4.76 (0.319) μmol/L
copper; [3]
  Mean Daily dNCC AUEC0-48w, Between Group LSM Diff (SE): 3.68 (0.568) μmol/L
  Mean Daily dNCC AUEC0-48w, Within Group LSM (SE): 4.64 (0.315) μmol/L
copper; Study 301, FIG. 2
  time of peak of plasma dNCC: 4 to 6 weeks
copper; Study 301, Overall
  Mean Daily dNCC AUEC0-48w, LSM Diff (SE), BC-TTM vs SoC: 2.18 (0.244) μmol/L
  Mean Daily dNCC AUEC0-48w, Mean (SD): 3.12 (2.347) μmol/L
copper; Study 301, Overall, ANCOVA
  Mean Daily dNCC AUEC0-48w, LSM (SE): 3.18 μmol/L and 3.18 (0.167) μmol/L
copper; [4]
  Mean Daily dNCC AUEC0-48w, Between Group LSM Diff (SE): 2.12 (0.253) μmol/L
  Mean Daily dNCC AUEC0-48w, Within Group LSM (SE): 3.06 (0.179) μmol/L
[1]; BC-TTM exposure 4 wks
  UWDRS Part III (Range 0-175) LSM change from baseline: −0.83
  UWDRS Part III (Range 0-175) Mean change from baseline: −0.72
  UWDRS Part III Functional Subscale (Range 0-10) LSM change from baseline: −0.083
  UWDRS Part III Functional Subscale (Range 0-10) Mean change from baseline: −0.072
[1]; BC-TTM exposure 12 wks
  UWDRS Part III (Range 0-175) LSM change from baseline: −1.13
  UWDRS Part III (Range 0-175) Mean change from baseline: −1.11
  UWDRS Part III Functional Subscale (Range 0-10) LSM change from baseline: −0.141
  UWDRS Part III Functional Subscale (Range 0-10) Mean change from baseline: −0.137
[1]; BC-TTM exposure 24 wks
  UWDRS Part III (Range 0-175) LSM change from baseline: −1.10
  UWDRS Part III (Range 0-175) Mean change from baseline: −0.97
  UWDRS Part III Functional Subscale (Range 0-10) LSM change from baseline: −0.146
  UWDRS Part III Functional Subscale (Range 0-10) Mean change from baseline: −0.157
[1]; BC-TTM exposure 36 wks
  UWDRS Part III (Range 0-175) LSM change from baseline: −1.85
  UWDRS Part III (Range 0-175) Mean change from baseline: −2.38
  UWDRS Part III Functional Subscale (Range 0-10) LSM change from baseline: −0.202
  UWDRS Part III Functional Subscale (Range 0-10) Mean change from baseline: −0.286
[1]; BC-TTM exposure 48 wks
  UWDRS Part III (Range 0-175) LSM change from baseline: −2.76
  UWDRS Part III (Range 0-175) Mean change from baseline: −3.37
  UWDRS Part III Functional Subscale (Range 0-10) LSM change from baseline: −0.285
  UWDRS Part III Functional Subscale (Range 0-10) Mean change from baseline: −0.345
[1]; BC-TTM exposure 60 wks
  UWDRS Part III (Range 0-175) LSM change from baseline: −3.24
  UWDRS Part III (Range 0-175) Mean change from baseline: −2.00
  UWDRS Part III Functional Subscale (Range 0-10) LSM change from baseline: −0.355
  UWDRS Part III Functional Subscale (Range 0-10) Mean change from baseline: −0.422
[1]; BC-TTM exposure 72 wks
  UWDRS Part III (Range 0-175) LSM change from baseline: −4.43
  UWDRS Part III (Range 0-175) Mean change from baseline: −4.93
  UWDRS Part III Functional Subscale (Range 0-10) LSM change from baseline: −0.399
  UWDRS Part III Functional Subscale (Range 0-10) Mean change from baseline: −0.494
[1]; BC-TTM exposure 96 wks
  UWDRS Part III (Range 0-175) LSM change from baseline: −6.32
  UWDRS Part III (Range 0-175) Mean change from baseline: −7.95
  UWDRS Part III Functional Subscale (Range 0-10) LSM change from baseline: −0.607
  UWDRS Part III Functional Subscale (Range 0-10) Mean change from baseline: −0.900
[1]; BC-TTM exposure 120 wks
  UWDRS Part III (Range 0-175) LSM change from baseline: −6.69
  UWDRS Part III (Range 0-175) Mean change from baseline: −8.92
  UWDRS Part III Functional Subscale (Range 0-10) LSM change from baseline: −0.660
  UWDRS Part III Functional Subscale (Range 0-10) Mean change from baseline: −0.946
[1]; BC-TTM exposure 144 wks
  UWDRS Part III (Range 0-175) LSM change from baseline: −7.70
  UWDRS Part III (Range 0-175) Mean change from baseline: −9.78
  UWDRS Part III Functional Subscale (Range 0-10) LSM change from baseline: −0.803
  UWDRS Part III Functional Subscale (Range 0-10) Mean change from baseline: −1.042
[1]; BC-TTM exposure 168 wks
  UWDRS Part III (Range 0-175) LSM change from baseline: −9.48
  UWDRS Part III (Range 0-175) Mean change from baseline: −18.08
  UWDRS Part III Functional Subscale (Range 0-10) LSM change from baseline: −0.903
  UWDRS Part III Functional Subscale (Range 0-10) Mean change from baseline: −1.841
[1]; BC-TTM exposure 192 wks
  UWDRS Part III (Range 0-175) LSM change from baseline: −6.13
  UWDRS Part III (Range 0-175) Mean change from baseline: −12.65
  UWDRS Part III Functional Subscale (Range 0-10) LSM change from baseline: −0.437
  UWDRS Part III Functional Subscale (Range 0-10) Mean change from baseline: −1.250
[1]; BC-TTM exposure 216 wks
  UWDRS Part III (Range 0-175) LSM change from baseline: −6.52
  UWDRS Part III (Range 0-175) Mean change from baseline: −16.17
  UWDRS Part III Functional Subscale (Range 0-10) LSM change from baseline: −0.430
  UWDRS Part III Functional Subscale (Range 0-10) Mean change from baseline: −1.519
[1]; BC-TTM exposure 240 wks
  UWDRS Part III (Range 0-175) LSM change from baseline: −6.49
  UWDRS Part III (Range 0-175) Mean change from baseline: 11.48
  UWDRS Part III Functional Subscale (Range 0-10) LSM change from baseline: −0.607
  UWDRS Part III Functional Subscale (Range 0-10) Mean change from baseline: −0.898
[1]; BC-TTM exposure 264 wks
  UWDRS Part III (Range 0-175) LSM change from baseline: −9.57
  UWDRS Part III (Range 0-175) Mean change from baseline: −14.00
  UWDRS Part III Functional Subscale (Range 0-10) LSM change from baseline: −0.818
  UWDRS Part III Functional Subscale (Range 0-10) Mean change from baseline: −0.995
[1]; Baseline, observed value
  UWDRS Part III (Range 0-175) Mean: 15.43
  UWDRS Part III Functional Subscale (Range 0-10) Mean: 1.590
[1]; Pooled Studies 301 and 201
  UWDRS Part II, Part III and Part III Functional Subscale scores over up to 5 years: continuing improvement
[1]; Pooled Studies 301 and 201, BC-TTM exposure 4 weeks
  UWDRS Part II Score (Range 0-40), change from baseline, Mean (SD): −0.3 (2.28)
[1]; Pooled Studies 301 and 201, BC-TTM exposure 12 weeks
  UWDRS Part II Score (Range 0-40), change from baseline, Mean (SD): −0.4 (2.76)
[1]; Pooled Studies 301 and 201, BC-TTM exposure 24 weeks
  UWDRS Part II Score (Range 0-40), change from baseline, Mean (SD): −0.4 (3.42)
[1]; Pooled Studies 301 and 201, BC-TTM exposure 36 weeks
  UWDRS Part II Score (Range 0-40), change from baseline, Mean (SD): −0.9 (4.11)
[1]; Pooled Studies 301 and 201, BC-TTM exposure 48 weeks
  UWDRS Part II Score (Range 0-40), change from baseline, Mean (SD): −1.2 (4.24)
[1]; Pooled Studies 301 and 201, BC-TTM exposure 60 weeks
  UWDRS Part II Score (Range 0-40), change from baseline, Mean (SD): −1.4 (4.35)
[1]; Pooled Studies 301 and 201, BC-TTM exposure 72 weeks
  UWDRS Part II Score (Range 0-40), change from baseline, Mean (SD): −1.9 (4.74)
[1]; Pooled Studies 301 and 201, BC-TTM exposure 96 weeks
  UWDRS Part II Score (Range 0-40), change from baseline, Mean (SD): −2.5 (6.11)
[1]; Pooled Studies 301 and 201, BC-TTM exposure 120 weeks
  UWDRS Part II Score (Range 0-40), change from baseline, Mean (SD): −3.1 (6.82)
[1]; Pooled Studies 301 and 201, BC-TTM exposure 144 weeks
  UWDRS Part II Score (Range 0-40), change from baseline, Mean (SD): −3.3 (6.61)
[1]; Pooled Studies 301 and 201, BC-TTM exposure 168 weeks
  UWDRS Part II Score (Range 0-40), change from baseline, Mean (SD): −6.2 (10.17)
[1]; Pooled Studies 301 and 201, BC-TTM exposure 192 weeks
  UWDRS Part II Score (Range 0-40), change from baseline, Mean (SD): −5.9 (9.88)
[1]; Pooled Studies 301 and 201, BC-TTM exposure 216 weeks
  UWDRS Part II Score (Range 0-40), change from baseline, Mean (SD): −7.1 (10.90)
[1]; Pooled Studies 301 and 201, BC-TTM exposure 240 weeks
  UWDRS Part II Score (Range 0-40), change from baseline, Mean (SD): −6.6 (10.09)
[1]; Pooled Studies 301 and 201, BC-TTM exposure 264 weeks
  UWDRS Part II Score (Range 0-40), change from baseline, Mean (SD): −6.2 (9.02)

— US20250082674A1, “METHODS OF TREATING COPPER METABOLISM-ASSOCIATED DISEASES OR DISORDERS” (priority 2021, published 2025)
